Measurements: publication PMC5578999, “Novel quinolone chalcones targeting colchicine-binding pocket kill multidrug-resistant cancer cells by inhibiting tubulin activity and MRP1 function” (Scientific Reports, 2017)

Experiments:
Assay in all cases: NCI-60 SRB screen
Format in all cases: cell-based
SK-MEL-28 = test system: SK-MEL-28
Text: (§1) Supplementary Figure l egend
(§2) 10μ M of CTR-20 was used to examine the drug’s efficac y against the NC I-60 cancer cell li nes including: six leukemia cell lines, nine non- small cell lung cancer cell lines, seven color ect al cancer cell lines, six CNS cancer cell lines, nine melanoma cell lines, seven ovari an can cer cell lines, seven ren al can cer cell lines, two prostate cancer cell lines and six breast cancer cell lines. The scr eenin g was car r ied out b y the US National Cancer Institute (NC I) us i n g a sulforhodamine B (SRB) colorimetric assay. […]
(§3) out by the NC I using five different doses of CTR -20.

NCI-H522 = test system: NCI-H522
Text: as §1, §2, §3

CCRF-CEM = test system: CCRF-CEM
Text: as §1, §2, §3

A498 = test system: A498
Text: as §1, §2, §3

KM12 = test system: KM12
Text: as §1, §2, §3

SK-MEL-2 = test system: SK-MEL-2
Text: as §1, §2, §3

HT29 = test system: HT29
Text: as §1, §2, §3

IGROV1 = test system: IGROV1
Text: as §1, §2, §3

K-562 = test system: K-562
Text: as §1, §2, §3

HL-60(TB) = test system: HL-60(TB)
Text: as §1, §2, §3

BT-549 = test system: BT-549
Text: as §1, §2, §3

MDA-MB-468 = test system: MDA-MB-468
Text: as §1, §2, §3

[1] = Homo sapiens, read-out: LC50 (the source's name)

Q: What does the source list for `COc1ccc2[nH]c(=O)c(/C=C/C(=O)c3ccccc3OC)cc2c1` [CTR-20, (E)-6-Methoxy-3-(3-(2-methoxyphenyl)-3-oxoprop-1-enyl) quinolin-2(1H)-one]?
A: Log10GI50 (SK-MEL-28): -5.82 Molar; Log10LC50 (SK-MEL-28): -4.54 Molar; Log10TGI (SK-MEL-28): -5.14 Molar; TGI (SK-MEL-28): 7.32E-6 Molar; Growth Percent (SK-MEL-28; 1.00E-5 Molar): 50.45%; GI50 (SK-MEL-28; Homo sapiens): 1520 nM; CC50 (SK-MEL-28; [1]): 28500 nM; Percent Growth (SK-MEL-28; Log10 Concentration -4.0): -98%; Percent Growth (SK-MEL-28; Log10 Concentration -5.0): -10%; Percent Growth (SK-MEL-28; Log10 Concentration -6.0): 63%; Percent Growth (SK-MEL-28; Log10 Concentration -7.0): 95%; Percent Growth (SK-MEL-28; Log10 Concentration -8.0): 96%; Log10GI50 (NCI-H522): -6.45 Molar; Log10LC50 (NCI-H522): -4.89 Molar; Log10TGI (NCI-H522): -5.69 Molar; TGI (NCI-H522): 2.06E-6 Molar; Growth Percent (NCI-H522; 1.00E-5 Molar): 3.93%; GI50 (NCI-H522; Homo sapiens): 352 nM; LC50 (concentration causing 50% net cell kill) (NCI-H522; Homo sapiens): 12900 nM; Percent Growth (NCI-H522; Log10 Concentration -4.0): -88%; Percent Growth (NCI-H522; Log10 Concentration -5.0): -45%; Percent Growth (NCI-H522; Log10 Concentration -6.0): 21%; Percent Growth (NCI-H522; Log10 Concentration -7.0): 85%; Percent Growth (NCI-H522; Log10 Concentration -8.0): 87%; Log10GI50 (CCRF-CEM): -6.41 Molar; Log10LC50 (CCRF-CEM): > -4.00 Molar; Log10TGI (CCRF-CEM): > -4.00 Molar; TGI (CCRF-CEM): > 1.00E-4 Molar; Growth Percent (CCRF-CEM; 1.00E-5 Molar): 7.53%; GI50 (CCRF-CEM; Homo sapiens): 392 nM; LC50 (concentration causing 50% net cell kill) (CCRF-CEM; Homo sapiens): > 100000 nM; Percent Growth (CCRF-CEM; Log10 Concentration -4.0): 1%; Percent Growth (CCRF-CEM; Log10 Concentration -5.0): 6%; Percent Growth (CCRF-CEM; Log10 Concentration -6.0): 19%; Percent Growth (CCRF-CEM; Log10 Concentration -7.0): 95%; Percent Growth (CCRF-CEM; Log10 Concentration -8.0): 99%; Log10GI50 (A498): -6.18 Molar; Log10LC50 (A498): -4.63 Molar; Log10TGI (A498): -5.34 Molar; TGI (A498): 4.55E-6 Molar; Growth Percent (A498; 1.00E-5 Molar): 21.71%; GI50 (A498; Homo sapiens): 656 nM; CC50 (A498; [1]): 23600 nM; Percent Growth (A498; Log10 Concentration -4.0): -100%; Percent Growth (A498; Log10 Concentration -5.0): -20%; Percent Growth (A498; Log10 Concentration -6.0): 39%; Percent Growth (A498; Log10 Concentration -7.0): 99%; Percent Growth (A498; Log10 Concentration -8.0): 97%; Log10GI50 (KM12): -6.49 Molar; Log10LC50 (KM12): -5.23 Molar; Log10TGI (KM12): -5.80 Molar; TGI (KM12): 1.58E-6 Molar; Growth Percent (KM12; 1.00E-5 Molar): 4.37%; GI50 (KM12; Homo sapiens): 321 nM; CC50 (KM12; [1]): 5890 nM; Percent Growth (KM12; Log10 Concentration -4.0): -86%; Percent Growth (KM12; Log10 Concentration -5.0): -70%; Percent Growth (KM12; Log10 Concentration -6.0): 17%; Percent Growth (KM12; Log10 Concentration -7.0): 84%; Percent Growth (KM12; Log10 Concentration -8.0): 99%; Log10GI50 (SK-MEL-2): -6.16 Molar; Log10LC50 (SK-MEL-2): -4.54 Molar; Log10TGI (SK-MEL-2): -5.36 Molar; TGI (SK-MEL-2): 4.39E-6 Molar; Growth Percent (SK-MEL-2; 1.00E-5 Molar): -2.52%; GI50 (SK-MEL-2; Homo sapiens): 694 nM; CC50 (SK-MEL-2; [1]): 29200 nM; Percent Growth (SK-MEL-2; Log10 Concentration -4.0): -81%; Percent Growth (SK-MEL-2; Log10 Concentration -5.0): -23%; Percent Growth (SK-MEL-2; Log10 Concentration -6.0): 41%; Percent Growth (SK-MEL-2; Log10 Concentration -7.0): 99%; Percent Growth (SK-MEL-2; Log10 Concentration -8.0): 95%; Log10GI50 (HT29): -6.53 Molar; Log10LC50 (HT29): -4.63 Molar; Log10TGI (HT29): -5.86 Molar; TGI (HT29): 1.37E-6 Molar; Growth Percent (HT29; 1.00E-5 Molar): 7.17%; GI50 (HT29; Homo sapiens, HT-29): 293 nM; LC50 (HT29; Homo sapiens, HT-29): 23700 nM; Percent Growth (HT29; Log10 Concentration -4.0): -73%; Percent Growth (HT29; Log10 Concentration -5.0): -36%; Percent Growth (HT29; Log10 Concentration -6.0): 6%; Percent Growth (HT29; Log10 Concentration -7.0): 89%; Percent Growth (HT29; Log10 Concentration -8.0): 98%; Log10GI50 (IGROV1): -6.24 Molar; Log10LC50 (IGROV1): > -4.00 Molar; Log10TGI (IGROV1): -4.77 Molar; TGI (IGROV1): 1.70E-5 Molar; Growth Percent (IGROV1; 1.00E-5 Molar): 14.55%; GI50 (IGROV1; Homo sapiens, IGROV-1): 582 nM; CC50 (IGROV1; Homo sapiens, IGROV-1, read-out: LC50 (the source's name)): > 100000 nM; Percent Growth (IGROV1; Log10 Concentration -4.0): -27%; Percent Growth (IGROV1; Log10 Concentration -5.0): 8%; Percent Growth (IGROV1; Log10 Concentration -6.0): 40%; Percent Growth (IGROV1; Log10 Concentration -7.0): 82%; Percent Growth (IGROV1; Log10 Concentration -8.0): 99%; Log10GI50 (K-562): -6.79 Molar; Log10LC50 (K-562): > -4.00 Molar; Log10TGI (K-562): > -4.00 Molar; TGI (K-562): > 1.00E-4 Molar; Growth Percent (K-562; 1.00E-5 Molar): 4.24%; GI50 (K-562; Homo sapiens, K562): 162 nM; CC50 (K-562; Homo sapiens, K562, read-out: LC50 (the source's name)): > 100000 nM; Percent Growth (K-562; Log10 Concentration -4.0): 4%; Percent Growth (K-562; Log10 Concentration -5.0): 6%; Percent Growth (K-562; Log10 Concentration -6.0): 11%; Percent Growth (K-562; Log10 Concentration -7.0): 61%; Percent Growth (K-562; Log10 Concentration -8.0): 101%; Log10GI50 (HL-60(TB)): -6.69 Molar; Log10LC50 (HL-60(TB)): > -4.00 Molar; Log10TGI (HL-60(TB)): -6.05 Molar; TGI (HL-60(TB)): 8.83E-7 Molar; Growth Percent (HL-60(TB); 1.00E-5 Molar): -2.46%; GI50 (HL-60(TB); Homo sapiens): 206 nM; CC50 (HL-60(TB); [1]): > 100000 nM; Percent Growth (HL-60(TB); Log10 Concentration -4.0): -37%; Percent Growth (HL-60(TB); Log10 Concentration -5.0): -12%; Percent Growth (HL-60(TB); Log10 Concentration -6.0): -4%; Percent Growth (HL-60(TB); Log10 Concentration -7.0): 75%; Percent Growth (HL-60(TB); Log10 Concentration -8.0): 97%; Log10GI50 (BT-549): -6.41 Molar; Log10LC50 (BT-549): -4.72 Molar; Log10TGI (BT-549): -5.62 Molar; TGI (BT-549): 2.42E-6 Molar; Growth Percent (BT-549; 1.00E-5 Molar): 18.91%; GI50 (BT-549; Homo sapiens): 387 nM; CC50 (BT-549; [1]): 19200 nM; Percent Growth (BT-549; Log10 Concentration -4.0): -97%; Percent Growth (BT-549; Log10 Concentration -5.0): -32%; Percent Growth (BT-549; Log10 Concentration -6.0): 20%; Percent Growth (BT-549; Log10 Concentration -7.0): 93%; Percent Growth (BT-549; Log10 Concentration -8.0): 91%; Log10GI50 (MDA-MB-468): -6.47 Molar; Log10LC50 (MDA-MB-468): -4.40 Molar; Log10TGI (MDA-MB-468): -5.78 Molar; TGI (MDA-MB-468): 1.65E-6 Molar; Growth Percent (MDA-MB-468; 1.00E-5 Molar): 16.65%; GI50 (MDA-MB-468; Homo sapiens): 336 nM; CC50 (MDA-MB-468; [1]): 40100 nM; Percent Growth (MDA-MB-468; Log10 Concentration -4.0): -68%; Percent Growth (MDA-MB-468; Log10 Concentration -5.0): -22%; Percent Growth (MDA-MB-468; Log10 Concentration -6.0): 6%; Percent Growth (MDA-MB-468; Log10 Concentration -7.0): 99%; Percent Growth (MDA-MB-468; Log10 Concentration -8.0): 99%
